Each structure is given as a SMILES string. Where only a bound is given, the exact number is not on record here.

For the experiment, the target named is T1, human Plk4 kinase domain (aa 2-275) (Homo sapiens, UniProt O00444).
T1 construct: purified 6×His-tagged human Plk4 kinase domain (aa 2-275); 6xHis; made in house; host or cells: E. coli
T1 sequence (O00444 2-275): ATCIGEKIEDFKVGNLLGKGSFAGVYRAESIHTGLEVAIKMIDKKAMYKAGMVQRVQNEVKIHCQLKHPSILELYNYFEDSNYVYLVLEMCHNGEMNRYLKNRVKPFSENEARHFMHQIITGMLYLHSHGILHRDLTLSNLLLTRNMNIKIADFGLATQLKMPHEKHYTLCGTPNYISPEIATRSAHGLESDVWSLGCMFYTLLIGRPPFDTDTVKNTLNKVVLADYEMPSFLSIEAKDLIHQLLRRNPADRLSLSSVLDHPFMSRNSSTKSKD
Briefly: Plk4 kinase assay (ADP-Glo). It counts as biochemical. The note with it: Table 1. On the procedure:
Kinase assays. […] The Plk4 concentration in the final reaction was 2.5-10 nM with a final pH of 8.0. […] Reactions were allowed to proceed for 4-16 hours at 25° C. Detection was performed using ADP-Glo reagent (Promega), following manufacturer's instructions. Luminescence was measured on an Infinite M1000 plate reader (Tecan). Data were fit using Prism (GraphPad) and Kis were calculated from IC50 data using the Cheng and Prusoff equation (37) or the Copeland formalism for tight-binding inhibitors (38).
The molecule `CCNc1nc(Sc2ccc(NC(=O)C3CC3)cc2)nc(Nc2cc(C)[nH]n2)c1C` displayed an IC50 of less than 1000 nM. In the case of `CCCC(=O)Nc1ccc(Sc2nc(Nc3cc(C)[nH]n3)c(C)c(N3CCN(C)CC3)n2)cc1`, the IC50 is less than 1000 nM.

In turn, `Cc1cc(Nc2nc(Sc3ccc(NC(=O)C4CC4)cc3)nc(NC(C)C)c2C)n[nH]1` came in with an IC50 of less than 1000 nM.

In turn, `CCN(C)c1nc(Sc2ccc(NC(C)=O)cc2)nc(Nc2cc(C)[nH]n2)c1C` showed an IC50 of less than 1000 nM. In the case of `CC(=O)Nc1ccc(Sc2nc(Nc3cc(C)[nH]n3)c(C)c(N(C)C)n2)cc1`, the IC50 was less than 1000 nM. Next, `COc1c(Nc2cc(C)[nH]n2)nc(Sc2ccc(NC(C)=O)cc2)nc1NC1CCNCC1`: less than 1000 nM.

Regarding `CCc1cc(Nc2nc(SC)nc(N3CCN(CCN(C)C)CC3)c2OC)n[nH]1`, the IC50 is less than 1000 nM. Next, `CCc1cc(Nc2nc(SC)nc(N3CCN(CCN(C)C)CC3)c2C)n[nH]1`: less than 1000 nM. Next, `COc1c(Nc2cc(C)[nH]n2)nc(Sc2ccc(NC(C)=O)nc2)nc1N1CCOCC1`: less than 1000 nM; `COc1c(Nc2cc(C)[nH]n2)nc(Sc2ccc(S(=O)(=O)C(C)(C)c3cccc([N+](=O)[O-])c3F)cc2F)nc1N1CCN(C(C)=O)CC1`: less than 1000 nM; `COc1c(Nc2cc(C)[nH]n2)nc(Sc2ccc(S(=O)(=O)Cc3cccc([N+](=O)[O-])c3F)cc2F)nc1N1CCC(NC(C)=O)CC1`: less than 1000 nM.

`COc1c(Nc2cc(C)[nH]n2)nc(Sc2ccc(S(=O)(=O)C3(c4cccc([N+](=O)[O-])c4F)CC3)cc2F)nc1N1CCC(CN(C)C)CC1` came in with an IC50 of less than 1000 nM. On to `COc1c(Nc2cc(C)[nH]n2)nc(Sc2ccc(S(=O)(=O)C3(c4cccc([N+](=O)[O-])c4F)CC3)cc2F)nc1N1CCC(C(N)=O)CC1`, for which the IC50 was less than 1000 nM. For the molecule `COc1c(Nc2cc(C)[nH]n2)nc(Sc2ccc(S(=O)(=O)C(C)(C)c3c(F)c(F)cc(F)c3F)cc2F)nc1N1CCC(N)CC1`, the IC50 is less than 1000 nM.

Consider `COc1c(Nc2cc(C)[nH]n2)nc(Sc2ccc(S(=O)(=O)Cc3cccc([N+](=O)[O-])c3F)cc2F)nc1N1CCC(CC(N)=O)CC1`, for which the IC50 was less than 1000 nM. Next, `COc1c(Nc2cc(C)[nH]n2)nc(Sc2ccc(S(=O)(=O)C3(c4cccc([N+](=O)[O-])c4F)CC3)cc2F)nc1N1CCC(CN)CC1`: less than 1000 nM. Regarding `COc1c(Nc2cc(C)[nH]n2)nc(Sc2ccc(S(=O)(=O)C(C)(C)c3cccc([N+](=O)[O-])c3F)cc2F)nc1N1CCN(CCNC(=O)C(F)(F)F)CC1`, the IC50 was less than 1000 nM.

In the case of `COc1c(Nc2cc(C)[nH]n2)nc(Sc2cccc(NC(C)=O)c2)nc1N1CCN(CCN(C)C)CC1`, the IC50 is less than 1000 nM.

In turn, `COc1c(Nc2cc(C)[nH]n2)nc(Sc2cccc(NC(C)=O)c2)nc1N1CCOCC1` came in with an IC50 of less than 1000 nM. Next, `COc1c(Nc2cc(C)[nH]n2)nc(Sc2ccc(NC(C)=O)cc2)nc1N1CCN(CC(=O)N2CCOCC2)CC1`: less than 1000 nM; `COc1c(Nc2cc(C)[nH]n2)nc(Sc2ccc(NC(C)=O)cc2)nc1N1CCN(CC(=O)N2CCCCC2)CC1`: less than 1000 nM. In turn, `Cc1cc(Nc2nc(Sc3ccc([N+](=O)[O-])cc3)nc3c2CCC32CCN(C(=O)C(C)(C)C)CC2)n[nH]1` gave a half-inhibitory concentration (IC50) of less than 1000 nM. `Cc1cc(Nc2nc(Sc3ccc([N+](=O)[O-])cc3)nc3c2CCC32CCNCC2)n[nH]1`: the IC50 was less than 1000 nM. `CC(=O)Nc1ccc(Sc2nc(Nc3cc(C)[nH]n3)c3c(n2)C2(CC3)CCN(C(=O)C(C)(C)C)CC2)cc1` returned an IC50 of less than 1000 nM. The molecule `COc1c(Nc2cc(C)[nH]n2)nc(Sc2ccc([N+](=O)[O-])cc2)nc1N1CCN(CCN(C)C)CC1` gave an IC50 of less than 1000 nM.

In turn, `COc1c(Nc2cc(C)[nH]n2)nc(Sc2ccc(NC(C)=O)cc2)nc1C1=CCNCC1` registered an IC50 of less than 1000 nM.

Consider `COc1c(Nc2cc(C)[nH]n2)nc(Sc2ccc(NC(C)=O)cc2)nc1N1CCN(CCN(C)C)C(C)C1` (centres unmarked), for which the IC50 is less than 1000 nM. Next, `COc1c(Nc2cc(C)[nH]n2)nc(Sc2ccc(NC(C)=O)cc2)nc1C1=CCN(CC(=O)N(C)C)CC1`: less than 1000 nM. The molecule `COc1c(Nc2cc(C)[nH]n2)nc(Sc2ccc(NC(C)=O)cc2)nc1C1=CCN(CCN(C)C)CC1` displayed an IC50 of less than 1000 nM.

(Values after patent US10752612B2, “PLK4 inhibitors” (LUDWIG INSTITUTE FOR CANCER RESEARCH LTD, priority 2015, dated 2020).)
